biological target: T1, Human Factor XIIa (Homo sapiens, UniProt P00748); assay: Determination of FXIIa inhibition (in vitro IC50 assay, fluorogenic substrate H-DPro-Phe-Arg-AFC); assay type: biochemical; conditions: human Factor XIIa; fluorogenic substrate H-DPro-Phe-Arg-AFC at Km concentration; 5 min, 25 °C; class symbols; read-out: Human FXIIa IC50
T1 construct: purchased Enzyme Research Laboratories
T1 sequence (P00748 373-615 limits assumed): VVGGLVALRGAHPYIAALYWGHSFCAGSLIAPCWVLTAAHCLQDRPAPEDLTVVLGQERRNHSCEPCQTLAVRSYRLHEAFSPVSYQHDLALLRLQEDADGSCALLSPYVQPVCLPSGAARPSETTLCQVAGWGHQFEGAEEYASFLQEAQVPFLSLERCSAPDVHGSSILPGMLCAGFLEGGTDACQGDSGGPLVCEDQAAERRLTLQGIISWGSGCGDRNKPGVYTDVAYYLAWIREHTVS
T1 sequence (P00748 20-372 partner limits assumed): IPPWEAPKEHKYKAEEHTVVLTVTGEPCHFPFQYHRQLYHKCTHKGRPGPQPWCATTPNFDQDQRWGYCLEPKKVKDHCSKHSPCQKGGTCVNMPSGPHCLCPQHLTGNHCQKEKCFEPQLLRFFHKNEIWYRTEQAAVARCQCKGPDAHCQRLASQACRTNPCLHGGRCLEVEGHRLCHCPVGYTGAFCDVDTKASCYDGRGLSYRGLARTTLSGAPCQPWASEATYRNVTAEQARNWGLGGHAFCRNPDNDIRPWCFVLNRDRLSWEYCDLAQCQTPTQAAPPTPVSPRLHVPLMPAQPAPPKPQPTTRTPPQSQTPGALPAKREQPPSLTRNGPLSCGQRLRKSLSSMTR
Description: In vitro inhibition of Factor XIIa was determined using an IC50 assay based on standard literature methods (see e.g Baeriswyl et al., ACS Chem. Biol., 2015, 10 (8) 1861; Bouckaert et al., European Journal of Medicinal Chemistry 110 (2016) 181). Human Factor XIIa (Enzyme Research Laboratories) was incubated at 25 °C with the fluorogenic substrate H-DPro-Phe-Arg-AFC (Peptide Protein Science) and various concentrations of the test compound. Protease activity was measured by monitoring the accumulation of liberated fluorescence from the substrate over 5 min at 25 °C. The linear rate of fluorescence increase per minute was expressed as percentage (%) activity. The Km for the cleavage of the substrate by FXIIa was determined by standard transformation of the Michaelis-Menten equation. The compound inhibitor assays were performed at substrate Km concentration. IC50 values were calculated as the concentration of inhibitor giving 50% inhibition (IC50) of the uninhibited enzyme activity (100%).

Row | Compound | IC50
1 | Cn1ccc(OCC23CN(C(=O)N[C@@H]4C[C@H]4c4ccccc4)C(CNc4cccc5c(N)nccc45)(C2)C3)cc1=O (racemic) [Example 60, rac-1-(((1-aminoisoquinolin-5-yl)amino)methyl)-4-(((1-methyl-2-oxo-1,2-dihydropyridin-4-yl)oxy)methyl)-N-((1R,2S)-2-phenylcyclopropyl)-2-azabicyclo[2.1.1]hexane-2-carboxamide] | 1 to 10 nM
2 | CO[C@H]1CC[C@H](CC(=O)N2CC3(COc4cc(C)n(C)c(=O)c4)CC2(CNc2cccc4c(N)nccc24)C3)CC1 (single isomer, unassigned) [Example 24, 4-((1-(((1-aminoisoquinolin-5-yl)amino)methyl)-2-(2-((1r,4r)-4-methoxycyclohexyl)acetyl)-2-azabicyclo[2.1.1]hexan-4-yl)methoxy)-1,6-dimethylpyridin-2(1H)-one] | 10 to 100 nM
3 | CO[C@H]1CC[C@@H](CC(=O)N2CC3(COc4cc(C)n(C)c(=O)c4)CC2(CNc2cccc4c(N)nccc24)C3)CC1 (single isomer, unassigned) [Example 25, 4-((1-(((1-aminoisoquinolin-5-yl)amino)methyl)-2-(2-((1s,4s)-4-methoxycyclohexyl)acetyl)-2-azabicyclo[2.1.1]hexan-4-yl)methoxy)-1,6-dimethylpyridin-2(1H)-one] | 10 to 100 nM
4 | Nc1nccc2c(NCC34CC(c5ncc(-c6ccccc6)o5)(CO3)C4)cccc12 [Example 1, N5-((4-(5-Phenyloxazol-2-yl)-2-oxabicyclo[2.1.1]hexan-1-yl)methyl)isoquinoline-1,5-diamine] | 40000 to 100000 nM
5 | Nc1nccc2c(NCC34CC(CN5C(=O)CC[C@H]5c5ccccc5)(CO3)C4)cccc12 [Example 2, (S)-1-((1-(((1-aminoisoquinolin-5-yl)amino)methyl)-2-oxabicyclo[2.1.1]hexan-4-yl)methyl)-5-phenylpyrrolidin-2-one] | 3000 to 10000 nM
6 | Cn1ccc(OCC23CN(C(=O)Cc4ccc5c(c4)CCO5)C(CNc4cccc5c(N)nccc45)(C2)C3)cc1=O [Example 3, 4-((1-(((1-aminoisoquinolin-5-yl)amino)methyl)-2-(2-(2,3-dihydrobenzofuran-5-yl)acetyl)-2-azabicyclo[2.1.1]hexan-4-yl)methoxy)-1-methylpyridin-2(1H)-one] | 1 to 10 nM
7 | Cn1ccc(OCC23CN(C(=O)C(C)(C)Oc4ccccc4)C(CNc4cccc5c(N)nccc45)(C2)C3)cc1=O [Example 4, 4-((1-(((1-aminoisoquinolin-5-yl)amino)methyl)-2-(2-methyl-2-phenoxypropanoyl)-2-azabicyclo[2.1.1]hexan-4-yl)methoxy)-1-methylpyridin-2(1H)-one] | 100 to 300 nM
8 | Cn1ccc(OCC23CN(C(=O)C4(Oc5ccccc5)CC4)C(CNc4cccc5c(N)nccc45)(C2)C3)cc1=O [Example 6, 4-((1-(((1-aminoisoquinolin-5-yl)amino)methyl)-2-(1-phenoxycyclopropane-1-carbonyl)-2-azabicyclo[2.1.1]hexan-4-yl)methoxy)-1-methylpyridin-2(1H)-one] | 100 to 300 nM
9 | Cn1ccc(OCC23CN(C(=O)C(C)(C)Cc4ccccc4)C(CNc4cccc5c(N)nccc45)(C2)C3)cc1=O [Example 7, 4-((1-(((1-aminoisoquinolin-5-yl)amino)methyl)-2-(2,2-dimethyl-3-phenylpropanoyl)-2-azabicyclo[2.1.1]hexan-4-yl)methoxy)-1-methylpyridin-2(1H)-one] | 100 to 300 nM
10 | Cn1ccc(OCC23CN(C(=O)C4(Cc5ccccc5)CC4)C(CNc4cccc5c(N)nccc45)(C2)C3)cc1=O [Example 8, 4-((1-(((1-aminoisoquinolin-5-yl)amino)methyl)-2-(1-benzylcyclopropane-1-carbonyl)-2-azabicyclo[2.1.1]hexan-4-yl)methoxy)-1-methylpyridin-2(1H)-one] | 10 to 100 nM
11 | Cn1ccc(OCC23CN(C(=O)CC4CCOCC4)C(CNc4cccc5c(N)nccc45)(C2)C3)cc1=O [Example 9, 4-((1-(((1-aminoisoquinolin-5-yl)amino)methyl)-2-(2-(tetrahydro-2H-pyran-4-yl)acetyl)-2-azabicyclo[2.1.1]hexan-4-yl)methoxy)-1-methylpyridin-2(1H)-one] | 10 to 100 nM
